Like-named read-outs stand apart in the source and are kept apart here.
How the values were obtained:
5637 = assay: CellTiter-Glo cytotoxicity assay, single agents (Stage 1); type: cell-based; conditions: CTG assay 72 h
Protocol: (§1) A2780, SK-OV-3, OVCAR-3, NCI-H460, NCI-H1975, NCI-H2122, 5637 and HT1376 were cultured in RPMI Medium 1640 (Invitrogen-22400105) supplemented with 10% fetal bovine serum (FBS; Invitrogen-10099141). All the cell lines were maintained in a humidified incubator at 37° C. with 5% CO2. Cell culture media and supplements were purchased from Invitrogen, and tissue culture flasks were purchased from Corning, 96-well plates and 384-well plates were purchased from Greiner. CellTiter-Glo Luminescent Cell Viability Assay kits were purchased from Promega (Promega-G7573), cells counter Vi-Cell was purchased from Beckman, detection instrument Envision was purchased from PerkinElmer.
(§2) Paclitaxcel (used as a reference) and cisplatin were purchased from SELLECK, and they were of highest purity available. All compounds attained solubility in DMSO and when diluted into culture media. DMSO, compounds solutions and culture media were warmed to 37° C. for the solution preparation and dilutions.
(§3) Eight cell lines were allowed to adhere to 96-well plates overnight (100 μL/well), for drug treatments with 3.16 fold dilution, 9 dose points, triplicates or vehicle control, compound stock solutions were prepared in DMSO and added to the wells to give the indicated final drug concentrations. Final DMSO concentration was 0.5%. Cellular ATP concentrations were assessed by using the CellTiter-Glo Cell Viability Assay as per the manufacturer's instructions 72 h after drug addition.
(§4) In Stage 1 the IC50 (using 5 or more concentrations) of each individual compound (cisplatin, gemcitabine and NUC-1031) in the relevant cell lines was determined.

A2780 = assay: as above; type: cell-based; conditions: CTG assay 72 h
Protocol: as §1, §2, §3, §4

HT1376 = assay: as above; type: cell-based
Protocol: as §1, §2, §3, §4

NCI-H1975 = assay: as above; type: cell-based; conditions: CTG assay 72 h
Protocol: as §1, §2, §3, §4

NCI-H460 = assay: as above; type: cell-based; conditions: CTG assay 72 h
Protocol: as §1, §2, §3, §4

OVCAR-3 = assay: as above; type: cell-based; conditions: CTG assay 72 h
Protocol: as §1, §2, §3, §4

SK-OV3 = assay: as above; type: cell-based
Protocol: as §1, §2, §3, §4

HT1376 (Bladder) = assay: CellTiter-Glo combination analysis (Stage 2); type: cell-based; conditions: cisplatin alone dose-effect curve
Protocol: A2780, SK-OV-3, OVCAR-3, NCI-H460, NCI-H1975, NCI-H2122, 5637 and HT1376 were cultured in RPMI Medium 1640 (Invitrogen-22400105) supplemented with 10% fetal bovine serum (FBS; Invitrogen-10099141). All the cell lines were maintained in a humidified incubator at 37° C. with 5% CO2. Cell culture media and supplements were purchased from Invitrogen, and tissue culture flasks were purchased from Corning, 96-well plates and 384-well plates were purchased from Greiner. CellTiter-Glo Luminescent Cell Viability Assay kits were purchased from Promega (Promega-G7573), cells counter Vi-Cell was purchased from Beckman, detection instrument Envision was purchased from PerkinElmer. 8 cell lines were allowed to adhere to 384 well plates overnight (60 μL/well), for combination study, four combinations of two compounds will be investigated twice, keeping one compound at a fixed concentration while increasing the concentration of the second compound (10 fold dilution, 5 dose points), compound stock solutions were prepared in DMSO and added to the wells to give the indicated final drug concentrations by D300e digital dispenser. […] Cellular ATP concentrations were assessed by using the CellTiter-Glo Cell Viability Assay as per the manufacturer's instructions 72 hours after drug addition. Stage 2 determined the interaction of selected combinations of compounds on cancer cell growth. […]

SKOV3 cells = assay: Sulforhodamine B (SRB) assay, single agent; type: cell-based; conditions: SRB assay on day 4, read-out: IC50
Protocol: SKOV3 cells were purchased from American Type Culture Collection (ATCC). They were cultured at 37° C. and 5% CO2 in Gibco™ RMPI Medium 1640+GlutaMAX™-I (Life Technologies; 61870-010) with 10% Gibco™ FBS (Life Technologies; 10270-106) and 1% Gibco™ Penicillin-Streptomycin (Life Technologies; Ser. No. 15/140,122), known as complete medium, in a cell culture flask. Cisplatin was purchased from TEVA UK Limited (PL 00289/1146). Fluvastatin and Sulforaphane were both purchased from Merck Millipore Corporation (Catalogue numbers 344096 and 574215 respectively). (S)-NUC-1031 was provided by NuCana® Ltd.
SKOV3 cells were plated at 250 cells in 200 μl per well in the middle 60 wells of Costar® 3596 96-well plates, with the outer 36 wells filled with 200 μl PBS each. The cells were allowed to grow in complete medium for 48 hours before different drug compounds were added in. For single agent, cisplatin, (S)-NUC-1031, fluvastatin and sulforaphane in complete medium at 10 different concentrations were added into the middle 60 wells (Day 0). Each concentration was loaded in sextuplicate. Cells were exposed to the compounds for 24 hours and the compounds were replaced by pure complete medium. The experiment with fluvastatin was repeated with 4-day exposure instead of 24 hours. The plates were fixed with 50 μl 25% TCA solution at 4° C. for 60 minutes on day 4 after the drug compounds were added for Sulforhodamine B assay (see below).
After adding the TCA solution, the plates were washed under running tap water 10 times and were allowed to dry in the oven at 50° C. The cells were then stained with 50 μl SRB dye, and the dye was washed off with 1% glacial acetic acid for 4 times 30 minutes after SRB addition. The plates were then dried in the oven. SRB dye was allowed to dissolve in 150 μl 10 mM Tris buffer solution for 60 minutes on a rocker. The plates were read on Biohit BP800 Microplate Reader (Biohit Healthcare) and the absorbance was measured at 540 nm. […]

biliary tract cancer = conditions: cited from earlier work
[1] = absolute IC50, read-out: Ab IC50
[2] = CTG assay 72 h, absolute IC50, read-out: Ab IC50
[3] = CTG assay 72 h, relative IC50, read-out: IC50
[4] = Homo sapiens, absolute IC50, read-out: Ab IC50
[5] = Homo sapiens, relative IC50, read-out: IC50

With `N.N.[Cl][Pt][Cl]` [Cisplatin, cisplatin] the “Max Inhibition_%” value 5637 was 101.74%, the IC50 5637; [1] was 13700 nM and the IC50 (5637; relative IC50, read-out: IC50) was 13200 nM. The “Max Inhibition_%” value (A2780) was 99.05%, the IC50 (A2780; [1]) was 11000 nM and the IC50 (A2780; relative IC50, read-out: IC50) was 10100 nM. The “Max Inhibition_%” value (HT1376; CTG assay 72 h) was 71.90%, the IC50 (HT1376; [2]) was 20500 nM and the IC50 (HT1376; [3]) was 18400 nM. The “Max Inhibition_%” value (NCI-H1975) was 103.60%, the IC50 (NCI-H1975; [1]) was 69600 nM and the IC50 (NCI-H1975; relative IC50, read-out: IC50) was 69200 nM. For the same compound, the “Max Inhibition_%” value (NCI-H460) was 97.56%, the IC50 (NCI-H460; [1]) was 2590 nM and the IC50 (NCI-H460; relative IC50, read-out: IC50) was 2570 nM. The “Max Inhibition_%” value (OVCAR-3) was 79.59%, the IC50 (OVCAR-3; [1]) was 28300 nM and the IC50 (OVCAR-3; relative IC50, read-out: IC50) was 23500 nM. The “Max Inhibition_%” value (SK-OV3; CTG assay 72 h) was 86.42%, the IC50 (SK-OV3; [2]) was 45600 nM and the IC50 (SK-OV3; [3]) was 33700 nM. For the same compound, the IC50 (HT1376 (Bladder); listed as Cisplatin 2, read-out: IC50 (curve shift method)) was 58000 nM, the IC50 (HT1376 (Bladder); read-out: IC50 (curve shift method)) was 64400 nM and the IC50 (SKOV3 cells; 24 hours exposure) was 2440 nM.

With `Nc1ccn([C@@H]2O[C@H](CO)[C@@H](O)C2(F)F)c(=O)n1` [Gemcitabine] the “Max Inhibition_%” value 5637 was 84.49%, the IC50 5637; [1] was 10 nM and the IC50 (5637; relative IC50, read-out: IC50) was 10 nM. For the same compound, the “Max Inhibition_%” value (A2780) was 81.15%, the IC50 (A2780; [4]) was 10 nM and the IC50 (A2780; [5]) was 10 nM. For the same compound, the “Max Inhibition_%” value (HT1376; CTG assay 72 h) was 9.60%, the IC50 (HT1376; Homo sapiens, HT-1376, CTG assay 72 h, absolute IC50, read-out: Ab IC50) was over 1980 nM and the IC50 (HT1376; Homo sapiens, HT-1376, CTG assay 72 h, relative IC50, read-out: IC50) was over 1980 nM. For the same compound, the “Max Inhibition_%” value (NCI-H1975) was 62.12%, the IC50 (NCI-H1975; [4]) was 80 nM and the IC50 (NCI-H1975; [5]) was 20 nM. The “Max Inhibition_%” value (NCI-H460) was 96.28%, the IC50 (NCI-H460; [4]) was 10 nM and the IC50 (NCI-H460; [5]) was 10 nM. The “Max Inhibition_%” value (OVCAR-3) was 6.95%, the IC50 (OVCAR-3; [4]) was over 1980 nM and the IC50 (OVCAR-3; [5]) was 20 nM. The “Max Inhibition_%” value (SK-OV3; CTG assay 72 h) was 65.74%, the IC50 (SK-OV3; Homo sapiens, SK-OV-3, CTG assay 72 h, absolute IC50, read-out: Ab IC50) was 20 nM and the IC50 (SK-OV3; Homo sapiens, SK-OV-3, CTG assay 72 h, relative IC50, read-out: IC50) was 20 nM. For the same compound, the “overall survival (median)” value (biliary tract cancer; ABC-02, 410 patients with BTC) was 8.1 months and the “progression-free survival (median)” value (biliary tract cancer; ABC-02, patients with BTC) was 5 months.

`C[S+]([O-])CCCCN=C=S` (stereo not drawn) [sulforaphane, Sulforaphane] showed an IC50 (SKOV3 cells; Homo sapiens, SK-OV-3, 24 hours exposure) of 7000 nM.

Source: patent publication US20190022117A1, “COMBINATION THERAPY” (NuCana plc, priority 2015, published 2019)
